Like-named read-outs stand apart in the source and are kept apart here.
Assays:
[1] = for Solubility in seawater, Molecular weight conversion / Solubility in seawater, Dissolved zinc-copper: pH = 8.2
Procedure: Formulation of artificial seawater (g/L)
0.1 g of the sample was added in 500 mL of artificial seawater, which was then stirred at 20° C. and 30° C. for 4 hours and filtered, and the filtrate was subjected to atomic absorption analysis.

[2] = test system: Aspergillus niger ATCC 6275; assay: Antibacterial test (MIC), agar medium; settings: Potato dextrose agar medium, 30° C., 7 days
[3] = test system: Malassezia furfur NBRC 0656; settings: YM agar medium with olive oil, 30° C., 6 days
Procedure: (§1) Preparation of a sample: the extract was dissolved in dimethylsulfoxide, to which an aqueous 0.1 W % Tween 80 was added to make a sample solution.
YM agar medium to which olive oil is added, 30° C., 6 days

[4] = test system: Staphylococcus aureus NBRC 12732; settings: for Minimum growth inhibitive concentration of bacteria, Staphylococcus aureus: Soybean casein digest agar medium, 30° C., 5 days
Procedure: as §1
Soybean casein digest agar medium, 30° C., 5 days

[5] = 2% by weight in purified water, well-lighted room, one week
Description: (§2) The pyrithione complex compound represented by the formula (I) is used as an antidandruff agent to be formulated in hair-care products such as shampoos and hair rinses like conventional zinc pyrithione. […] Also, the zinc pyrithione/zinc oxide complex compound and zinc pyrithione were respectively added to purified water in an amount of 2% by weight and each suspension was allowed to stand in a well-lighted room to observe the degree of coloration of the suspension.

[6] = Weathering of polyethylene resin molded article (color difference, yellow index); format: physicochemical; settings: for ΔE* / ΔYI: Sample after hung in the sun versus before; for degree of coloring: after hung in the sun, ranking
Procedure: Then, the resin materials were respectively applied to a sheet having a size of 200 mm×200 mm×1.1 mm by press molding in the condition of 140° C. and 200 kgf/cm^2. Two test pieces of 30 mm×110 mm were cut from each of the four sheets and hung in the sun from 8 a.m. to 5 p.m. for five fine weather days selected from among the term between Sep. 15 and […].

[7] = test system: Escherichia coli NBRC 3972; settings: for Minimum growth inhibitive concentration of bacteria, Escherichia coli: NB agar medium with lactose, 30° C., 3 days
Procedure: as §1
NB agar medium to which lactose is added, 30° C., 3 days

oculus membrane mucosa = settings: aqueous 2.0 W % suspension instilled in the eye
Description: as §2

[8] = test system: Bacillus subtilis IFO 3215; assay: Antibacterial test (MIC), shake culture; format: cell-based; settings: 24 hours
Procedure: (§3) Preparation of a sample: the white powder is added in a fixed concentration.
(§4) Culture condition: 28° C., 24 hours, shake culture

[9] = test system: Escherichia coli IFO 3972; assay: Antibacterial test (MIC), shake culture; format: cell-based; settings: 24 hours
Procedure: as §3, §4

[10] = Stability in DMSO (coloring of filtrate); format: physicochemical
Procedure: 2 g of each of these four compounds was added in 10 g of DMSO, allowed to stand at ambient temperature in a laboratory and filtered, to examine coloring of the filtrate. Then, the filter residue was again added to 10 g of DMSO to carry out the same operation.

[11] = test system: Pseudomonas aeruginosa IAM 1514; assay: Antibacterial test (MIC), alone and combined with isothiazolone preparation; format: cell-based; settings: Table 3, Example 16
Procedure: as §3, §4

[12] = Sample after hung in the sun, five days
[13] = Sample before hung in the sun, 0.15 parts in LDPE

Compound	Solubility in seawater, Molecular weight conversion ([1]; 20° C.) [µg/mL]	Solubility in seawater, Molecular weight conversion ([1]; 30° C.) [µg/mL]	Minimum growth inhibitive concentration of bacteria, Aspergillus niger [2] [mg/L]	Minimum growth inhibitive concentration of bacteria, Malassezia furfur [3] [mg/L]	Solubility in seawater, Dissolved zinc-copper ([1]; 20° C.)	Minimum growth inhibitive concentration of bacteria, Staphylococcus aureus [4] [mg/L]	degree of coloration of the suspension [5]	ΔE* [6]	ΔYI [6]	L* [6, 12]	YI [6, 12]	a* [6, 12]	b* [6, 12]	L* [6, 13]	YI [6, 13]	a* [6, 13]	b* [6, 13]	degree of coloring [6]	Minimum growth inhibitive concentration of bacteria, Escherichia coli [7] [mg/L]	also measured
On1ccccc1=S.On1ccccc1=S.[Cu] [Copper pyrithione]	0.1	0.2	20	–	–	–	–	–	–	–	–	–	–	–	–	–	–	–	–	–
[O-2].[O-][n+]1ccccc1S.[O-][n+]1ccccc1S.[O-][n+]1ccccc1S.[O-][n+]1ccccc1S.[O-][n+]1ccccc1S.[O-][n+]1ccccc1S.[Zn+2].[Zn+2].[Zn+2].[Zn+2] [Example 3 Chloroform extract, zinc pyrithione-zinc oxide complex compound]	3.2	4.3	–	5	0.82 (Zn) mg/L	1.25	slightly yellowed	11.52	19.93	81.92	21.52	−3.05	11.52	84.78	1.58	−0.28	0.71	smaller	10	antibacterial ability to Staphylococcus aureus ([4]; compared with zinc pyrithione): higher; antibacterial ability to Escherichia coli ([7]; compared with zinc pyrithione): higher
[Cu+2].[Cu+2].[Cu+2].[O-][n+]1ccccc1[S-].[O-][n+]1ccccc1[S-].[O-][n+]1ccccc1[S-].[O-][n+]1ccccc1[S-].[O-][n+]1ccccc1[S-].[O-][n+]1ccccc1[S-].[O]=[Cu] [Example 9 Chloroform extract, copper pyrithione/copper (II) oxide complex compound]	0.6	0.6	5	–	0.14 (Cu) mg/L	–	–	–	–	–	–	–	–	–	–	–	–	–	–	Solubility in seawater, Dissolved zinc-copper ([1]; 30° C.): 0.15 (Cu) mg/L; solubility in seawater ([1]; as stated in the description): about 0.6 ppm
Zinc pyrithione	6.1	7.4	–	5	–	2.5	colored in yellow	20.18	34.00	82.16	34.70	−5.00	19.68	86.87	0.71	−0.79	0.51	the largest	20	primary irritation (criterion by the Draize method) (oculus membrane mucosa): slightly irritant; Minimum growth inhibitive concentration of bacteria, Bacillus subtilis ([8]; Table 1, Example 14, 28° C.): 2.5 mg/L; Minimum growth inhibitive concentration of bacteria, Bacillus subtilis ([8]; Table 2, Example 15, 28° C.): 1 mg/L; Minimum growth inhibitive concentration of bacteria, Escherichia coli ([9]; Table 1, Example 14, 28° C.): 5 mg/L; Minimum growth inhibitive concentration of bacteria, Escherichia coli ([9]; Table 2, Example 15, 28° C.): 2.5 mg/L; coloring of the first filtrate ([10]; 2 g in 10 g of DMSO, ambient temperature): brown appearance; coloring of the second filtrate ([10]; filter residue again added to 10 g of DMSO): brown appearance; Minimum growth inhibitive concentration of bacteria, Pseudomonas aeruginosa [11]: >1000 mg/L
